Experimental data reported in patent US5948814A, “Genistein for the treatment of cystic fibrosis” (priority 1998, dated 1999).
Several values for one entry are separate records, joined by “and”; a condition that tells them apart may be missing. Identical values can stand only once.

Columns and labels:
[1] = molecular target: T1, ΔF508-CFTR (Homo sapiens, UniProt P13569, DEL508-508); test: Patch clamp, cell-attached patches, macroscopic current, NIH/3T3-ΔF508 cells
Experimental: FIGS. 3A and B show recordings of the potentiation of wild-type (wt) and ΔF508-CFTR channel activity by genistein. Channels in cell-attached patches from NIH/3T3-CFTR (FIG. 3A) and NIH/3T3-ΔF508cells (FIG. 3B), were stimulated as indicated with 10 μM forskolin and 50μ genestein.
Cell culture: NIH/3T3-CFTR, NIH/3T3-ΔF508, and NIH/3T3 mock cells (generous gifts from Dr. Richard Mulligan of Children's Hospital and Medical Center, Harvard Medical School) were grown as described [Bradbury et al., 1992] at 37° C. and 5% CO2 in Dulbecco's modified Eagle's medium-H21 supplemented with 10% new-born calf serum, 4 mM glutamine, 25 mM glucose, 100 μg/ml penicillin, 100 μg/ml streptomycin, and 50 μg/ml gentamicin. Cells were maintained in T75 flasks, passaged at 90-95% confluency, and split one to four. For measurements of I^- efflux and in vivo phosphorylation, cells were seeded onto 35-mm dishes at […]. For patch-clamp experiments, cells were grown on coverglass chips in 35-mm culture dishes. Media were replaced 24 hours after plating and thereafter every 48 hours. In all cases, media were changed on the day before I^- efflux studies, NIH/3T3-ΔF508 cells were transferred to 27° C. three days before use, and 1 day prior to study, media were supplemented with 5 mM butyrate. For patch-clamp studies, where a constant level of functional ΔF508-CFTR was not essential, NIH/3T3-ΔF508 cells were cultured at 27° C. for 2-6 days before use. Calu-3 cells were grown and maintained as described by Hunter [1995].
Electrophysiology: CFTR channel currents were recorded at room temperature (~22° C.) with a patch-clamp amplifier (EPC-9, Heka Electronic), filtered at 100 Hz with a built-in three-pole Bessel filter, and stored on videotapes. Data were subsequently refiltered at 25 Hz with an eight-pole Bessel filter (Frequency Device, Havervill, Mass.) and captured onto a hard disk at a sampling rate of 50 Hz. […] Patch-clamp electrodes were made from Corning 7052 glass capillaries (Warner Instrument, Hammed, Conn.). The pipette resistance was usually 3-5 M.OMEGA., and the seal resistance was >20 G.OMEGA.. The pipette solution contained (in mM) 140 N-methyl-D-glucamine chloride (NMDG-C1), 2 MgCl2, 5Ca Cl2, and 10 HEPES (pH 7.4 with NMDG). The superfusion solution contained (in mM) 150 […], 2 MgCl2, 1 EGTA, 5 glucose, and 5 HEPES (pH 7.4 with NaOH). […]
Statistics: Mean currents and variance were estimated with Igor (Wavemetrics, Lake Oswego, Oreg.). […] Po was calculated from patches containing a single channel by dividing the open channel current amplitude with the mean-current amplitude. […] Calculated values are presented as means±SE. […]

[2] = molecular target: T1, ΔF508-CFTR; test: CFTR gating in excised inside-out patches, NIH/3T3-ΔF508 cells
Experimental: FIGS. 9A and B are recordings of the effects of genistein on CFTR gating in excised inside-out patches from NIH/3T3-CFTR or NIH/3T3-ΔF508 cells. CFTR channels were activated by 10 μM forskolin +20 nM calyculin A before excision into an inside-out configuration. Presence of calyculin A helps to slow channel dephosphorylation. (A): continuous 14.5 minute recording of a patch containing wt-CFTR. Expanded traces are 22 seconds in length. ATP (500 μM) with or without 20 μM genistein was present as indicated. (B): 2 traces of 44 seconds in length of an excised inside-out patch with CFTR-ΔF508.
Electrophysiology: CFTR channel currents were recorded at room temperature (~22° C.) with a patch-clamp amplifier (EPC-9, Heka Electronic), filtered at 100 Hz with a built-in three-pole Bessel filter, and stored on videotapes. Data were subsequently refiltered at 25 Hz with an eight-pole Bessel filter (Frequency Device, Havervill, Mass.) and captured onto a hard disk at a sampling rate of 50 Hz. […] Patch-clamp electrodes were made from Corning 7052 glass capillaries (Warner Instrument, Hammed, Conn.). The pipette resistance was usually 3-5 M.OMEGA., and the seal resistance was >20 G.OMEGA.. The pipette solution contained (in mM) 140 N-methyl-D-glucamine chloride (NMDG-C1), 2 MgCl2, 5Ca Cl2, and 10 HEPES (pH 7.4 with NMDG). The superfusion solution contained (in mM) 150 […], 2 MgCl2, 1 EGTA, 5 glucose, and 5 HEPES (pH 7.4 with NaOH). In excised inside-out patch experiments, the bath solution contained (in mM) 130 MNDG-Cl, 10 EGTA, 10 HEPES, 20 tetraethylammonium chloride, 8 Tris, and 2 MgCl2 (pH 7.4 with NMDG). Pipette potential was held at 50 mV relative to the bath. Downward deflections represent channel opening.
Channels were first activated in cell-attached patches with forskolin plus calyculin A, a membrane-permeant phosphatase inhibitor [Suganuma et al., 1991]. Patches were then excised into an inside-out configuration.

[3] = tested on: CFTR; test: In vivo phosphorylation of CFTR (32P) versus I- efflux, NIH/3T3-CFTR cells; assay type: cell-based; conditions: 50 μM genistein; 0-10 μM forskolin; all phosphorylation levels
Experimental: I^- efflux: I^- efflux was measured as described previously [Reenstra et al., 1996]. Briefly, cells were incubated for 30 minutes with 37° C. I^- efflux buffer [(in mM) 141 NaCl, 4 KCl, 1 KH2 PO4, 0.9 MgCl2, 1.7 CaCl2. 10 N-2hydroxyethylpiperazine-N'-2-ethanesulfonic acid (HEPES), 25 glucose pH 7.4] containing 5 μCi/ml carrier-free ^125 I^- (sodium salt). Extracellular ^125 I^- was removed by washing four times with efflux buffer, and the rate of loss of intracellular ^125 I^- was determined by replacing the bathing solution with 37° C. efflux buffer every 60 seconds for 12 minutes. Time-dependent rates of ^125 I^- efflux are calculated from R=ln(^125 I^-t1 /^125 I^-t2)/(t1-t2), where ^125 I^-t is the intracellular ^125 I^- at time t and t1 and t2 are successive time points. Dose-response curves were obtained from peak rates of 125I^- efflux by nonlinear least squares fitting to R=[Ro +Rmx ·([fsk]/K1/2)]/[1+([fsk]/K1/2)], where Ro and Rmx are the rates of ^125 I efflux at zero and infinite concentration of forskolin (fsk), and K1/2 is the concentration of agonist that gives a half-maximal change.

[4] = molecular target: wt-CFTR (Homo sapiens, UniProt P13569); design: expressed in transfected cells; host or cells: pooled: Calu-3 (endogenous, n=2); conditions: cited from earlier work
wt-CFTR, sequence (P13569 whole entry): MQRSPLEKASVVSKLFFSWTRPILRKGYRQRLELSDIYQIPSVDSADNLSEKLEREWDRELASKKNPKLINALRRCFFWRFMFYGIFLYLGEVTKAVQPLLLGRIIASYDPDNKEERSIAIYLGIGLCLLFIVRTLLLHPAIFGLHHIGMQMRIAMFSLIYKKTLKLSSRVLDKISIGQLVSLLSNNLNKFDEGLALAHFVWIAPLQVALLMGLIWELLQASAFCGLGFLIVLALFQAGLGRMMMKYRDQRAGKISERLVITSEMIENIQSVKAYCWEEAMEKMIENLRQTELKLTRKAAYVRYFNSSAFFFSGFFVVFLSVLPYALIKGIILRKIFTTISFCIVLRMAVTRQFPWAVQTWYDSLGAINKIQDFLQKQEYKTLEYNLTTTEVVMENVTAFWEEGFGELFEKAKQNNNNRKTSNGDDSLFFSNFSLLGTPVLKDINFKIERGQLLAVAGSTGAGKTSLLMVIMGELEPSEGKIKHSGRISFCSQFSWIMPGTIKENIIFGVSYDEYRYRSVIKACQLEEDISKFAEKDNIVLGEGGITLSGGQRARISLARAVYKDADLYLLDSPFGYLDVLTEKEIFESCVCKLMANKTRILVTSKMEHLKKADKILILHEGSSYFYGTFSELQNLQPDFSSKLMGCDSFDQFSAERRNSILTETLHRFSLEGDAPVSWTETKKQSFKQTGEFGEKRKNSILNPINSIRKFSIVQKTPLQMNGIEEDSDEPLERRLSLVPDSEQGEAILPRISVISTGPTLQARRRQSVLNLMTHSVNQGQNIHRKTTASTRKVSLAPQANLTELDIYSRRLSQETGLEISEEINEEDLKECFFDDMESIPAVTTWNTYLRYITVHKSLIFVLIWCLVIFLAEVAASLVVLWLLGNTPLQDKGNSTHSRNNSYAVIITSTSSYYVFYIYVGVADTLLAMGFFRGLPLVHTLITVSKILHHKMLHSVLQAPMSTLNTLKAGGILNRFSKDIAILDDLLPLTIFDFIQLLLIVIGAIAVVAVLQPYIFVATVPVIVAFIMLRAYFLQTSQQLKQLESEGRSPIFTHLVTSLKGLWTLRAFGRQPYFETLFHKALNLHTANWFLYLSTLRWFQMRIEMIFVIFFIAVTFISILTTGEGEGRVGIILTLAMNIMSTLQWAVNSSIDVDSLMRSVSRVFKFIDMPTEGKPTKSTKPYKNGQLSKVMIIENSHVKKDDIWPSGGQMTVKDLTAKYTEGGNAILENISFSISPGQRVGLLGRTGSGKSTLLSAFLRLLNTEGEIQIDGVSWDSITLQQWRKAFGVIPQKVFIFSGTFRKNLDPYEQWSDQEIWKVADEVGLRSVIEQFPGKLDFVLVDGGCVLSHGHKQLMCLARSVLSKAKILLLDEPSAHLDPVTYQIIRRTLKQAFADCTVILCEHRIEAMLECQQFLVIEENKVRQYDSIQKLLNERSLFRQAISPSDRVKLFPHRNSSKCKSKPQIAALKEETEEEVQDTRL

[5] = molecular target: T1, ΔF508-CFTR; test: Patch cramming, ΔF508-CFTR patch excised and crammed into NIH/3T3-CFTR cell; assay type: cell-based; design: expressed in transfected cells; host or cells: NIH/3T3 cells, stably transfected (NIH/3T3-ΔF508, gift of Dr. Richard Mulligan); conditions: ΔF508-CFTR crammed into NIH/3T3-CFTR cell; 10 μM forskolin, 50 μM genistein; n=2
Excerpt: Downward deflections represent channel opening.

T1 sequence (P13569 with tags, fused parts or gaps DEL508-508): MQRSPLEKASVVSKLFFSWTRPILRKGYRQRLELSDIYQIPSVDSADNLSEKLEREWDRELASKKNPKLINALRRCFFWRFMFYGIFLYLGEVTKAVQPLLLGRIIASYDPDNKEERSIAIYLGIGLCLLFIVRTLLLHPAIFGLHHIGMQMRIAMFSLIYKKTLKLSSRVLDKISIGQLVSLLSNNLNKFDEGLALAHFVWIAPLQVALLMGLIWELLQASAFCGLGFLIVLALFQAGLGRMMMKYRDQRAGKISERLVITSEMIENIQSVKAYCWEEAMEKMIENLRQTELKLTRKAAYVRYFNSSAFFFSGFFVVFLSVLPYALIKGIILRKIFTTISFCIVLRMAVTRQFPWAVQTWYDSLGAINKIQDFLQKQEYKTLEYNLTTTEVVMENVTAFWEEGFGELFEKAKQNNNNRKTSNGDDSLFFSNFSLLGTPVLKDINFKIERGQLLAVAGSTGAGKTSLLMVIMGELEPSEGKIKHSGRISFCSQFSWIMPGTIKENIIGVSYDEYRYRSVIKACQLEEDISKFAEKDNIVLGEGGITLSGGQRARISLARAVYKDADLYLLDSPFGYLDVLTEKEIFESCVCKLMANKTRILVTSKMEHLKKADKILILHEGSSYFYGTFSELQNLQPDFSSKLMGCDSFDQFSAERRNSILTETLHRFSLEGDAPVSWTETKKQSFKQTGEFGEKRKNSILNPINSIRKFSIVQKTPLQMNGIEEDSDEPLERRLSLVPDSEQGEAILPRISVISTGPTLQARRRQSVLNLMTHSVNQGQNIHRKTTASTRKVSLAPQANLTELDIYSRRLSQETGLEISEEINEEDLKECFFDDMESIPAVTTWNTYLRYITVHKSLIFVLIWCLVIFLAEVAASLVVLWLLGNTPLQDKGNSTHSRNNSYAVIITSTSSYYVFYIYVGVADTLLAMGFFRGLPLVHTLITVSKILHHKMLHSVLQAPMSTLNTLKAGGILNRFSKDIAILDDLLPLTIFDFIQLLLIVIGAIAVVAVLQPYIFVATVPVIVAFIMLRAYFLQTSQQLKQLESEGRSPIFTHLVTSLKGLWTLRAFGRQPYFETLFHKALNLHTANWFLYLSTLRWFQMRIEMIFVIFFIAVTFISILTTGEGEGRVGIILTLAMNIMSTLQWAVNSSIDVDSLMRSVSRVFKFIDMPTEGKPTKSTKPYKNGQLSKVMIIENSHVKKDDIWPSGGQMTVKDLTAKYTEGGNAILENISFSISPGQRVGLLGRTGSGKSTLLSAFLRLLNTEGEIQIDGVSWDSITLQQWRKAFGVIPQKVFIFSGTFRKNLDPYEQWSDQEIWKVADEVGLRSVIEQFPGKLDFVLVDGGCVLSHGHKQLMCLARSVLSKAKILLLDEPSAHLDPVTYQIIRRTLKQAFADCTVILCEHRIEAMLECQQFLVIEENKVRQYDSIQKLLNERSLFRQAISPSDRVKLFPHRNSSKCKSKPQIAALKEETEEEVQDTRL

Question: What does the source list for `O=c1c(-c2ccc(O)cc2)coc2cc(O)cc(O)c12` [Genistein, 4',5,7-trihydroxyisoflavone]?
Answer: patches showing channel activity ([1]; 10 μM forskolin plus 50 μM genistein, cells grown at 37° C.): Approximately 10%; average increase in mean-current amplitude by genistein ([1]; 50 μM genistein on 10 μM forskolin, cells cultured at 27° C., 23 patches, 50 µM): 18.6±2.2 fold and 19 fold; patches responding ([1]; forskolin plus genistein, cells grown at 27° C., 44 of 82): 54%; channel open time ([2]; ATP with genistein, stated for both wt- and ΔF508-CFTR): 2,033±173 milliseconds; increase of ATP-dependent channel current by genistein ([2]; genistein, n=7): 2.3±0.5 fold; channel activity at given CFTR phosphorylation level [3]: channel activity was greater in the presence of genistein; basal wt-CFTR activity [4]: stimulates basal wt-CFTR activity; channel activation in cells lacking basal CFTR activity [4]: does not appear to activate the channel in cells that lack a basal CFTR activity; deactivation of wt-CFTR currents after removal of cAMP-dependent stimulation [4]: prevents deactivation of wt-CFTR channel currents; potentiation of cAMP-dependent wt-CFTR activity [4]: potentiates cAMP-dependent wt-CFTR channel activity; steady-state phosphorylation of wt-CFTR [4]: increases the steady-state phosphorylation level of wt-CFTR; activation of wt-CFTR chloride channels ([4]; variety of cells): activates wt-CFTR chloride channels; enhancement of ΔF508-CFTR channel activity by genistein [5]: 19±11 fold
